Results on one compound are retold here after publication PMC10455244, “Alpha-Mangostin: A Potent Inhibitor of TRPV3 and Pro-Inflammatory Cytokine Secretion in Keratinocytes” (International Journal of Molecular Sciences, 2023).

The test has as its target T1, TRPV3 (G573S) (Homo sapiens, UniProt Q8NET8, G573S).
T1 construct: host or cells: HEK 293T (transient transfection, pEGFP-N1 co-transfected as a marker)
T1 sequence (Q8NET8 1-790 G573S): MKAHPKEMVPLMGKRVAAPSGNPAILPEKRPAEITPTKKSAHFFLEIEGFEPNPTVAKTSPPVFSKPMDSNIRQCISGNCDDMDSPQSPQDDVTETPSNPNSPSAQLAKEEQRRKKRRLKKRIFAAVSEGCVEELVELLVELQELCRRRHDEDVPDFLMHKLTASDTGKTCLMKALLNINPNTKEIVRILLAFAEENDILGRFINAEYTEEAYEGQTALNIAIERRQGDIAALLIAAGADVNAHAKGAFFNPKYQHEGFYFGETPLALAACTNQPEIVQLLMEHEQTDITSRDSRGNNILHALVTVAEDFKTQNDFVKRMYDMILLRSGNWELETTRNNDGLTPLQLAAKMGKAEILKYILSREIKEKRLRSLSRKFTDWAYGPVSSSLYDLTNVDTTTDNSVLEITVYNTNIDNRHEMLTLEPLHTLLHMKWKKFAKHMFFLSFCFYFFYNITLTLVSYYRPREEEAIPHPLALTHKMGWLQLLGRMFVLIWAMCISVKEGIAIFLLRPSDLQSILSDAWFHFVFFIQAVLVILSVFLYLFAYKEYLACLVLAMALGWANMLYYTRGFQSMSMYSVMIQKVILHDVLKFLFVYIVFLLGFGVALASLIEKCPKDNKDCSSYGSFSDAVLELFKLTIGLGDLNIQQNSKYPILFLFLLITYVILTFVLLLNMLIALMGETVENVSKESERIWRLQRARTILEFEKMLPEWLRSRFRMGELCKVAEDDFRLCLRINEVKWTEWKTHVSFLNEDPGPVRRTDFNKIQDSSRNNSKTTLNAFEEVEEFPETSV
As to the kind of experiment: Fura-2 calcium imaging, spontaneous Ca2+ increase in TRPV3 (G573S)-expressing HEK 293T cells. In kind it is cell-based. Conditions: 1 µM. The source says: Figure 4 Alpha-mangostin inhibited the activity of hyperactive TRPV3 mutant channels and rescued mutation-induced cell death. (A) Alpha-mangostin inhibited the channel current in representative TRPV3 (G573S)- and TRPV3 (G573C)-expressing HEK 293T cells. […] Currents were normalized to the response at −100 mV before adding alpha-mangostin. (C) Alpha-mangostin inhibited TRPV3-mediated intracellular calcium increase in TRPV3 (G573S)-expressing HEK 293T cells. […] The bar graph on the right summarizes the change in the intracellular calcium rise inhibited by alpha-mangostin. […]
Subsequently, the effects of alpha-mangostin on the activities of the mutated channels were further evaluated using intracellular calcium measurements.
Fura-2 AM (Thermo Fisher Scientific) was utilized as a fluorescent indicator to measure calcium signal, as described previously. […] To measure the cytosolic Ca^2+ level, a sequential excitation of Fura-2 is performed at 340 nm and 380 nm; then, the emission signals resulting from each excitation wavelength are measured and the ratio of these signals is calculated. […] Samples were excited using a wavelength of 380 nm for 20 ms, followed by 340 nm for 100 ms, and fluorescence at 510 nm was recorded. Recorded data were then analyzed using NIS-Element AR Version 5.00.00 (Nikon Instruments, Melville, NY, USA). […]

On to `COc1c(O)cc2oc3cc(O)c(CC=C(C)C)c(O)c3c(=O)c2c1CC=C(C)C` [Alpha-mangostin], for which the “Effect on spontaneous intracellular calcium increase” value is “potently attenuated”.
